Test results reported in ChEMBL document CHEMBL1201862, “PubChem BioAssay data set” (2004).
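Dose response: 5 concentrations. Exposure: 48 h. Format: 96-well plates. Endpoint: linear interpolation; highest concentration if not reached. GI50 marks 50% less growth.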 The source made the active and inactive calls. No stated cut-off is given here; in the data, active = GI50 up to about 1.1 µM and inactive = higher.

What was measured:
Assay in all cases: NCI-60 cell line screen, 48 h
M19-MEL = system: M19-MEL
DMS-114 = system: DMS-114
LXFL 529 = system: LXFL 529
DLD-1 = system: DLD-1
DMS-273 = system: DMS-273
SNB-78 = system: SNB-78
XF498 = system: XF498
HOP-18 = system: HOP-18
RXF 631 = system: RXF 631

SMILES | GI50 (M19-MEL) | GI50 (DMS-114) | GI50 (LXFL 529) | GI50 (DLD-1) | GI50 (DMS-273) | GI50 (SNB-78) | GI50 (XF498) | GI50 (HOP-18) | GI50 (RXF 631)
COC(=O)C1=C(c2ccc3c(c2)OCO3)OC(c2cc(OC)c(OC)c(OC)c2)C1 (configuration not stated) | 4.86 µM (inactive) | 2.49 µM (inactive) | 4.79 µM (inactive) | 3.58 µM (inactive) | 1.89 µM (inactive) | 10.4 µM (inactive) | 14.5 µM (inactive) | 16.3 µM (inactive) | 
[N-]=[N+]=NC1C2CC3C4CC5CC3[C@H](C2)C(C5)C41 (some centres not stated) | > 100 µM (inactive) | > 100 µM (inactive) | > 100 µM (inactive) | > 100 µM (inactive) | > 100 µM (inactive) |  | > 100 µM (inactive) | 17.1 µM (inactive) | 
FC(F)(F)P1C2C=CC(CC2)C1(F)F (configuration not stated) | > 100 µM (inactive) | > 100 µM (inactive) | > 100 µM (inactive) | > 100 µM (inactive) | > 100 µM (inactive) | > 100 µM (inactive) | > 100 µM (inactive) | > 100 µM (inactive) | 
CCOC(=O)c1ccc(/C(C)=N/NC(N)=S)cc1 | > 100 µM (inactive) | > 100 µM (inactive) | > 100 µM (inactive) | > 100 µM (inactive) | > 100 µM (inactive) | > 100 µM (inactive) | > 100 µM (inactive) | > 100 µM (inactive) | > 100 µM (inactive)
CCOC(=O)[C@@]12C(C)=CC(=O)O[C@]1(C)C1C(=O)NC(=O)C12 (some centres not stated) |  | > 100 µM (inactive) | > 100 µM (inactive) | > 100 µM (inactive) | > 100 µM (inactive) | > 100 µM (inactive) |  | 31.4 µM (inactive) | > 100 µM (inactive)
Cc1nn(C)c(=O)c2nn(-c3ccccc3)c(C)c12 | > 100 µM (inactive) | > 100 µM (inactive) | > 100 µM (inactive) | > 100 µM (inactive) | > 100 µM (inactive) | > 100 µM (inactive) |  | > 100 µM (inactive) | 
O=C(c1ccccc1)c1ccc2cccc(O)c2n1 | 28.8 µM (inactive) | 10.9 µM (inactive) |  | 27 µM (inactive) | 28.4 µM (inactive) | 46.5 µM (inactive) | 29.2 µM (inactive) | 36.1 µM (inactive) | 55.1 µM (inactive)
O=C(CC(=O)Nc1ccccc1O)Nc1ccccc1O | 15 µM (inactive) | 1.75 µM (inactive) | 8.91 µM (inactive) | 12.5 µM (inactive) | 25.9 µM (inactive) | > 100 µM (inactive) |  | 19.4 µM (inactive) | 9.79 µM (inactive)
COC(=O)C(C(=O)C(=O)Nc1ccc([N+](=O)[O-])cc1)c1nc2cc(C)c(C)cc2nc1O (configuration not stated) | > 100 µM (inactive) | > 100 µM (inactive) | > 100 µM (inactive) | > 100 µM (inactive) |  | > 100 µM (inactive) | > 100 µM (inactive) | > 100 µM (inactive) | 
O=[N+]([O-])c1cccc(C(O)/C(=N/Nc2ccccc2)C2Nc3ccc([N+](=O)[O-])cc3N=C2O)c1 (configuration not stated) | 45.4 µM (inactive) | 24.9 µM (inactive) | 37.6 µM (inactive) | > 100 µM (inactive) | 36.8 µM (inactive) | > 100 µM (inactive) | > 100 µM (inactive) |  | > 100 µM (inactive)
O=[N+]([O-])c1ccc(C2=Nc3ccccc3[S+]([O-])C(c3ccccc3)C2)cc1 (configuration not stated) | 14.6 µM (inactive) | 19.1 µM (inactive) | 13.5 µM (inactive) | 18.6 µM (inactive) | 22.6 µM (inactive) |  | 21.4 µM (inactive) | 24.9 µM (inactive) | 17.1 µM (inactive)
CCCCOCN/C(N)=N/C#N |  | > 100 µM (inactive) | > 100 µM (inactive) | > 100 µM (inactive) | 68.7 µM (inactive) | > 100 µM (inactive) | > 100 µM (inactive) | > 100 µM (inactive) | > 100 µM (inactive)
NC(=O)C#CC#CC#CCO | 1.81 µM (inactive) | 2.05 µM (inactive) | 1.14 µM (inactive) | 0.807 µM (active) | 1.98 µM (inactive) | 2.86 µM (inactive) |  | 1.82 µM (inactive) | 
COc1ccc(-c2cn3ccsc3n2)cc1 | > 100 µM (inactive) | 47.8 µM (inactive) | > 100 µM (inactive) | > 100 µM (inactive) | > 100 µM (inactive) | > 100 µM (inactive) |  | > 100 µM (inactive) | 
O=CN/C=C/c1ccc(O)c(O)c1 | > 100 µM (inactive) | > 100 µM (inactive) | > 100 µM (inactive) | > 100 µM (inactive) | > 100 µM (inactive) | > 100 µM (inactive) | > 100 µM (inactive) |  | > 100 µM (inactive)
COC(=O)CCC(=O)C(C#N)c1ccc(Cl)cc1Cl (configuration not stated) | > 100 µM (inactive) |  | > 100 µM (inactive) | > 100 µM (inactive) | > 100 µM (inactive) | > 100 µM (inactive) | > 100 µM (inactive) |  | > 100 µM (inactive)
CC[n+]1c(/C=C/c2ccc(N(CCCl)CCCl)cc2)ccc2cc(NC(=O)/C=C/c3ccccc3)ccc21 | 0.439 µM (active) | 0.52 µM (active) | 0.357 µM (active) | 0.628 µM (active) |  | 1.51 µM (inactive) | 0.205 µM (active) | 2.62 µM (inactive) | 
COc1cc(-c2oc3c(OC)c(OC)cc(O)c3c(=O)c2OC)ccc1O [TERNATIN] |  | > 100 µM (inactive) | 3.98 µM (inactive) | 3.7 µM (inactive) |  | 6.49 µM (inactive) | 2.2 µM (inactive) |  | > 100 µM (inactive)
Cc1cc(N(CCC#N)CCC#N)ccc1/N=N/c1ccc(C(=O)O)cc1 | > 100 µM (inactive) | > 100 µM (inactive) | > 100 µM (inactive) |  | > 100 µM (inactive) | > 100 µM (inactive) | > 100 µM (inactive) | 58.9 µM (inactive) | 
O=C(/C=C(\O)C(=O)O)/C=C(\O)c1ccccc1 | > 4.65 µM (inactive) |  | > 4.65 µM (inactive) | > 4.65 µM (inactive) | > 4.65 µM (inactive) | > 100 µM (inactive) | > 100 µM (inactive) | 1 µM (active) | 
Clc1ccc(Cc2nc3ccccc3s2)c(Cl)c1 | 15.7 µM (inactive) | 17 µM (inactive) | 16.8 µM (inactive) | 15.3 µM (inactive) | 18 µM (inactive) |  | 13.6 µM (inactive) | 16 µM (inactive) | 16.4 µM (inactive)
CN(C)/C=N\c1nc(=O)n(C2CCC(CO)O2)cc1F (configuration not stated) |  |  | > 100 µM (inactive) | > 100 µM (inactive) | > 100 µM (inactive) | 95.9 µM (inactive) | > 100 µM (inactive) | > 100 µM (inactive) | 
COc1cc2c(c(OC)c1OC)-c1ccc(OC)c(=O)cc1[C@@H](NC(=O)c1ccccc1)CC2 | < 0.01 µM (active) | < 0.01 µM (active) | < 0.01 µM (active) | < 0.0124 µM (active) | < 0.01 µM (active) | < 0.01 µM (active) | < 0.01 µM (active) | 97.5 µM (inactive) | 0.0115 µM (active)
CCOC(=O)NC(=O)c1cn(CCCOC(=O)CCCCCCCCCCC(=O)OCCCn2cc(C(=O)NC(=O)OCC)c(=O)[nH]c2=O)c(=O)[nH]c1=O | > 100 µM (inactive) |  | > 100 µM (inactive) | > 100 µM (inactive) |  | > 100 µM (inactive) | > 100 µM (inactive) | > 100 µM (inactive) | 37.3 µM (inactive)
O=C(Cc1nc2ccccc2s1)Nc1cccc(C(F)(F)F)c1 | 13 µM (inactive) | 15.6 µM (inactive) | 13.4 µM (inactive) | 14.2 µM (inactive) | 18.7 µM (inactive) |  | 14.8 µM (inactive) | 18.5 µM (inactive) | 13.8 µM (inactive)
